Assay [1] deals with T1, PaAP (Pseudomonas aeruginosa, UniProt Q02PA2, A513L/Q514V/S515P).
T1 construct: PaAP (WT, residues 27–536); His6 (TEV cleavable) (N, cleaved yes); made in house; host or cells: E. coli SHuffle T7
In words: Peptide digestion assay (overnight and time course, LC-MS/MALDI). In kind it is biochemical. The following applies: for substrate of / degraded by PaAP (words): incubated with PaAP overnight, LC–MS or MALDI; for P0 (parent peptide, LC–MS signal): 500 μM peptide, 1 μM PaAP_T. The procedure: A variety of peptides of varying lengths and compositions were incubated with PaAP at room temperature. Assays were performed by incubating (overnight at room temperature) 500 μM of substrate (peptides) with 1 μM enzyme (PaAP) in reaction buffer (50 mM Tris, pH 8.5, 100 mM NaCl). The reactions were quenched by heating to 100 °C for 10 min followed by centrifugation at 17,000g in a benchtop centrifuge to remove precipitate. Supernatant was collected and samples were analyzed by LC–MS. Initial trial assays were carried out in the presence and absence (control) of enzyme to determine if the substrate was degraded (single or triplicate experiments). Time-course assays were performed on selected peptide substrates in triplicate. A 300 μl reaction (including 500 μM of substrate) was initiated by the addition of 1 μM enzyme. The reaction was incubated at room temperature. The reaction was quenched at set timepoints by the removal of 30 μl aliquots, which were immediately heated to 100 °C for 10 min. The samples were analyzed by LC–MS using a Xevo Q-ToF (Waters) as described below, searching for masses of all peptide breakdown products.
Peptide degradation time courses were fitted to exponential equations as follows:
P0 peptide consumption was fitted to a single exponential equation (equation (2)) with the format2 yt=y0−Plateaue^−kt+Plateau
Time courses for the formation and decay of peptide intermediates were fitted to double exponential equations (equation (3)) and single exponential equations, followed by a linear phase (4)3 yt=y0−Plateau1e^−k1t+y0−Plateau2e^−k2t+Plateau 4 yt=y0−Plateaue^−kt+vt+Plateau where y(t) is the product formed at time t, y0 − Plateau is the amplitude of the exponential phase, k is the observed rate constant for the exponential phase, y0 is the value of y at time 0, Plateau is the value of y after exponential phase, C is the offset and v is the slope of the linear phase.
Peptide samples incubated in the presence and absence of PaAP were initially analyzed by MALDI. The peptide sample (0.5 µl at 10 µM) was spotted along with matrix (0.5 µl 10 mg ml^−1 α-cyano-4-hydroxycinnamic acid in ACN/0.1% TFA (50/50, vol/vol)) on a stainless steel MALDI plate and left to dry. The sample plate was loaded into a Sciex 4800 MALDI mass spectrometer. The laser voltage was adjusted to give a good signal to noise strength, and 50 shots were acquired in a random pattern across the spot and spectra combined. The spectra were externally calibrated with Sciex Pepcal mix (range: 500–4,000 m/z).

Assay [2] has as its target T2, PaAP variant R194A (Pseudomonas aeruginosa, UniProt Q02PA2, R194A).
T2 construct: PaAP (WT, residues 27–536); His6 (TEV cleavable) (N, cleaved yes); made in house; host or cells: E. coli SHuffle T7
Put plainly: biochemical. As for the experimental part: (§1) To test this, we produced the PaAP variant R194A to eliminate a likely salt bridge between the peptide COOH and the guanidinium of the protein arginine side chain.
(§2) Inhibition assays were carried out with the following peptides: linear-[…] (PaAP C-terminal residues), cyclic-[…], N-acetylated and C-amidated […]. IC50 values were determined by varying peptide concentration at a fixed substrate concentration (fixed at KM, (S) = 2 mM, PaAP concentration was 100 nM). KI was determined by assaying multiple fixed inhibitor concentrations (1,000 nM, 500 nM, 250 nM, 100 nM, 50 nM, 25 nM and 10 nM) at varying substrate concentrations under standard reaction conditions with Leu-pNA as a substrate (outlined above). KI values were determined by fitting the data to equation (1) (Morrison’s equation):1 v=1−Et+I+KI−Et+I+KI^2−4EtIKI/2Et where v is the velocity, Et is the total enzyme concentration, I is the concentration of inhibitor and KI is the equilibrium dissociation constant for the inhibitor.

The test system of assay [3] is PaAP variant R194A. Put plainly: biochemical. More on the design: species or system Pseudomonas aeruginosa. The following applies: compared to full-length PaAP. As for the experimental part:
as §1, §2

Where “and” joins values, the source holds several entries; their conditions need not be identical. Identical values can stand only once. No end group written: not given here.

Broadly, the IC50 is the concentration that inhibits the measured activity by half. High values mean a need for much substance, low ones inhibition by little substance.

T1 sequence (Q02PA2 37-516 A513L/Q514V/S515P): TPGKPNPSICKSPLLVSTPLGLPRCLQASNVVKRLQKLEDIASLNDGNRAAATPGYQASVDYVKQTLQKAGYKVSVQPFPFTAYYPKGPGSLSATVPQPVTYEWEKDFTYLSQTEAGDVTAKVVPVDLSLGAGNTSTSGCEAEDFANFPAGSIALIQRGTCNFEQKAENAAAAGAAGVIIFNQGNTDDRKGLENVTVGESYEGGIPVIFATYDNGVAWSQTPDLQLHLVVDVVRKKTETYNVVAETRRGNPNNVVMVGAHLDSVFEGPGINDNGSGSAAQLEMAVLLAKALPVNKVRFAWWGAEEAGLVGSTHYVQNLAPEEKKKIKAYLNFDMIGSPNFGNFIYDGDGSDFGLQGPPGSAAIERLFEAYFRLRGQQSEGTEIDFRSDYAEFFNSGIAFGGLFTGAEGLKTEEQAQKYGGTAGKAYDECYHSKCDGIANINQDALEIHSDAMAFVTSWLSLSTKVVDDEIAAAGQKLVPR
T2 sequence (Q02PA2 37-516, looked up, stated change not applied): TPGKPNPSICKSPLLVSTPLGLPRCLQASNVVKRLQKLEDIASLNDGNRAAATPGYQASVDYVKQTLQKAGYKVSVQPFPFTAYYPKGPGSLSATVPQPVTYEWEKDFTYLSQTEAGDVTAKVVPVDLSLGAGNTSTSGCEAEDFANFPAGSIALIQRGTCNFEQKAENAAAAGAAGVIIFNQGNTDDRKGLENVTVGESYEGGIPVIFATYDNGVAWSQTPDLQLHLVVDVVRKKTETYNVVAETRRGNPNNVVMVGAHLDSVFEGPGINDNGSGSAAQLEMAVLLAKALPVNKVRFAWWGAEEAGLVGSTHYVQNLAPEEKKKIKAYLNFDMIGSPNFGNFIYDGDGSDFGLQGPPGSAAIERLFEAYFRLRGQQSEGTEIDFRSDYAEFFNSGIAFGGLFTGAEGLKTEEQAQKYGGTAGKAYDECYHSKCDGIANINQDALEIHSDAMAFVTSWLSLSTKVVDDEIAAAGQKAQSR

Consider ERWGHDFIK [linear-ERWGHDFIK], for which the “substrate of / degraded by PaAP (words)” value in assay [1] is “acts as a substrate”; in assay [1] (listed as ERWGHDFIK) it was “capable of processing”. In addition, the “P0 (parent peptide, LC–MS signal)” value was 472729 and 388218 and 391107 in assay [1] (time 0 minutes); 463970 and 401514 and 388992 in assay [1] (time 5 minutes); 456641 and 389333 and 386619 in assay [1] (time 10 minutes); 422990 and 361623 and 355988 in assay [1] (time 30 minutes); 374560 and 318426 and 323916 in assay [1] (time 60 minutes); 323540 and 290204 and 288024 in assay [1] (time 90 minutes). Besides, the “P0 (parent peptide, LC–MS signal)” value in assay [1] (time 120 minutes) is 238229 and 257847; in assay [1] (time 1220 minutes), 623.109 and 431.795 and 326.884. Also, 306 µM corresponded to half-maximal inhibition in assay [2] (IC50). For the same sequence, the “fold increase of IC50 with R194A variant” value in assay [3] is on record as 100 fold.

The values above are taken from article PMC10449631 (Nature Chemical Biology, 2023).
